This note sets out measurements from ChEMBL document CHEMBL4732114, “Design and structural optimization of novel 2H-benzo[h]chromene derivatives that target AcrB and reverse bacterial multidrug resistance” (Eur J Med Chem, 2021).

≈ marks a conversion by molar mass, not a printed value.

In assay [1] the target is T1, Multidrug efflux pump subunit AcrB (Escherichia coli (strain K12)) (UniProt P31224).
T1 sequence (whole entry): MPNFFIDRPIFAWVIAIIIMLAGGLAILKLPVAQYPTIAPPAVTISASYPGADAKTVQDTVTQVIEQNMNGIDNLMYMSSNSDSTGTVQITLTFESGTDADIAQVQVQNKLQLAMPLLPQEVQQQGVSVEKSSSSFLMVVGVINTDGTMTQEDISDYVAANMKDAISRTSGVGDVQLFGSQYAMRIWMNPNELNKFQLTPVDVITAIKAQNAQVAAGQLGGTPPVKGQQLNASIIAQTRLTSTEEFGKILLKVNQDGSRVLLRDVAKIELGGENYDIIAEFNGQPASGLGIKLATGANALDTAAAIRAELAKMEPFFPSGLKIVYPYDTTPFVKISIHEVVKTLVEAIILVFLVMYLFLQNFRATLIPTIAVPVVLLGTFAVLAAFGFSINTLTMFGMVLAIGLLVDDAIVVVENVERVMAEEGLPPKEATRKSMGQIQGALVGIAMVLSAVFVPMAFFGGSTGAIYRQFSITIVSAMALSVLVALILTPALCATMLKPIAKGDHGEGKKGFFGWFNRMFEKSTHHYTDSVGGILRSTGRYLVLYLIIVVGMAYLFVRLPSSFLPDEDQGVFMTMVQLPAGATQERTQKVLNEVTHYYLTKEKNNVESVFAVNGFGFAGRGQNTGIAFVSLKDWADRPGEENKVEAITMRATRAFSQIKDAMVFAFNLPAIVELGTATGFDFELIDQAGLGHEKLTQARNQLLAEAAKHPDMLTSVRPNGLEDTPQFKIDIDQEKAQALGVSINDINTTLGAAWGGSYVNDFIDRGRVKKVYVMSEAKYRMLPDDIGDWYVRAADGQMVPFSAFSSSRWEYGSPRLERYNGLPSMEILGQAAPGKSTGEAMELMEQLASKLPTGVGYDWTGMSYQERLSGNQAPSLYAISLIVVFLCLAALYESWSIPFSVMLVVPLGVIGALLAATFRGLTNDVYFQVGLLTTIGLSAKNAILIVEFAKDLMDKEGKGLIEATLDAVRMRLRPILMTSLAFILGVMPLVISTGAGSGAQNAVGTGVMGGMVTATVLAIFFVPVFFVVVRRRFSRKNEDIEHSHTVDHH
Put plainly: Inhibition of AcrB in multidrug-resistant Escherichia coli BW25113 assessed as potentiation of chloramphenicol-induced antibacterial activity by measuring chloramphenicol MIC at 16 ug/ml by checkerboard titration method (reference value: 8 ug/ml). The note with it: dose 16.0 µg/ml.

In assay [2] the target is T1, Multidrug efflux pump subunit AcrB (Escherichia coli (strain K12)). In words: Inhibition of AcrB in multidrug-resistant Escherichia coli BW25113 assessed as potentiation of chloramphenicol-induced antibacterial activity by measuring chloramphenicol MIC at 32 ug/ml by checkerboard titration method (reference value: 8 ug/ml). The note with it: dose 32.0 µg/ml.
Assay [3] shares this target. In words: Inhibition of AcrB in multidrug-resistant Escherichia coli BW25113 assessed as potentiation of chloramphenicol-induced antibacterial activity by measuring chloramphenicol MIC at 64 ug/ml by checkerboard titration method (reference value: 8 ug/ml). As to conditions: dose 64.0 µg/ml.
For assay [4] the target is unchanged. Put plainly: Inhibition of AcrB in multidrug-resistant Escherichia coli BW25113 assessed as potentiation of chloramphenicol-induced antibacterial activity by measuring chloramphenicol MIC at 128 ug/ml by checkerboard titration method (reference value: 8 ug/ml). As to conditions: dose 128.0 µg/ml.
For assay [5] the target is unchanged. Put plainly: Inhibition of AcrB in multidrug-resistant Escherichia coli BW25113 assessed as potentiation of chloramphenicol-induced antibacterial activity by measuring chloramphenicol MIC at 256 ug/ml by checkerboard titration method (reference value: 8 ug/ml). The note with it: dose 256.0 µg/ml.
For assay [6] the target is unchanged. In words: Inhibition of AcrB in multidrug-resistant Escherichia coli BW25113 assessed as potentiation of erythromycin-induced antibacterial activity by measuring erythromycin MIC at 16 ug/ml by checkerboard titration method (reference value: 64 ug/ml). As to conditions: dose 16.0 µg/ml.
The target is the same in assay [7]. Put plainly: Inhibition of AcrB in multidrug-resistant Escherichia coli BW25113 assessed as potentiation of erythromycin-induced antibacterial activity by measuring erythromycin MIC at 32 ug/ml by checkerboard titration method (reference value: 64 ug/ml). As to conditions: dose 32.0 µg/ml.
Assay [8] shares this target. In words: Inhibition of AcrB in multidrug-resistant Escherichia coli BW25113 assessed as potentiation of erythromycin-induced antibacterial activity by measuring erythromycin MIC at 64 ug/ml by checkerboard titration method (reference value: 64 ug/ml). The note with it: dose 64.0 µg/ml.
The target is the same in assay [9]. Put plainly: Inhibition of AcrB in multidrug-resistant Escherichia coli BW25113 assessed as potentiation of erythromycin-induced antibacterial activity by measuring erythromycin MIC at 128 ug/ml by checkerboard titration method (reference value: 64 ug/ml). The note with it: dose 128.0 µg/ml.
The target is the same in assay [10]. Put plainly: Inhibition of AcrB in multidrug-resistant Escherichia coli BW25113 assessed as potentiation of erythromycin-induced antibacterial activity by measuring erythromycin MIC at 256 ug/ml by checkerboard titration method (reference value: 64 ug/ml). The note with it: dose 256.0 µg/ml.
For assay [11] the target is unchanged. In words: Inhibition of AcrB in multidrug-resistant Escherichia coli BW25113 assessed as potentiation of tetraphenylphosphonium-induced antibacterial activity by measuring tetraphenylphosphonium MIC at 16 ug/ml by checkerboard titration method (reference value: 1024 ug/ml). The note with it: dose 16.0 µg/ml.
The target is the same in assay [12]. Put plainly: Inhibition of AcrB in multidrug-resistant Escherichia coli BW25113 assessed as potentiation of tetraphenylphosphonium-induced antibacterial activity by measuring tetraphenylphosphonium MIC at 32 ug/ml by checkerboard titration method (reference value: 1024 ug/ml). The note with it: dose 32.0 µg/ml.
For assay [13] the target is unchanged. Put plainly: Inhibition of AcrB in multidrug-resistant Escherichia coli BW25113 assessed as potentiation of tetraphenylphosphonium-induced antibacterial activity by measuring tetraphenylphosphonium MIC at 64 ug/ml by checkerboard titration method (reference value: 1024 ug/ml). As to conditions: dose 64.0 µg/ml.
Assay [14] shares this target. In words: Inhibition of AcrB in multidrug-resistant Escherichia coli BW25113 assessed as potentiation of tetraphenylphosphonium-induced antibacterial activity by measuring tetraphenylphosphonium MIC at 128 ug/ml by checkerboard titration method (reference value: 1024 ug/ml). As to conditions: dose 128.0 µg/ml.
The target is the same in assay [15]. Put plainly: Inhibition of AcrB in multidrug-resistant Escherichia coli BW25113 assessed as potentiation of tetraphenylphosphonium-induced antibacterial activity by measuring tetraphenylphosphonium MIC at 256 ug/ml by checkerboard titration method (reference value: 1024 ug/ml). The note with it: dose 256.0 µg/ml.
For assay [16] the target is unchanged. In words: Inhibition of AcrB in multidrug-resistant Escherichia coli BW25113 assessed as potentiation of levofloxacin-induced antibacterial activity by measuring levofloxacin MIC at 16 ug/ml by checkerboard titration method (reference value: 0.06 ug/ml). As to conditions: dose 16.0 µg/ml.
Assay [17] shares this target. In words: Inhibition of AcrB in multidrug-resistant Escherichia coli BW25113 assessed as potentiation of levofloxacin-induced antibacterial activity by measuring levofloxacin MIC at 32 ug/ml by checkerboard titration method (reference value: 0.06 ug/ml). As to conditions: dose 32.0 µg/ml.
Assay [18] shares this target. Put plainly: Inhibition of AcrB in multidrug-resistant Escherichia coli BW25113 assessed as potentiation of levofloxacin-induced antibacterial activity by measuring levofloxacin MIC at 64 ug/ml by checkerboard titration method (reference value: 0.06 ug/ml). The note with it: dose 64.0 µg/ml.
Assay [19] has the same target. Put plainly: Inhibition of AcrB in multidrug-resistant Escherichia coli BW25113 assessed as potentiation of levofloxacin-induced antibacterial activity by measuring levofloxacin MIC at 128 ug/ml by checkerboard titration method (reference value: 0.06 ug/ml). As to conditions: dose 128.0 µg/ml.
Assay [20] has the same target. In words: Inhibition of AcrB in multidrug-resistant Escherichia coli BW25113 assessed as potentiation of levofloxacin-induced antibacterial activity by measuring levofloxacin MIC at 256 ug/ml by checkerboard titration method (reference value: 0.06 ug/ml). The note with it: dose 256.0 µg/ml.
The target is the same in assay [21]. As to conditions: Escherichia coli BW25113; dose 16.0 µg/ml.
The target is the same in assay [22]. The note with it: Escherichia coli BW25113; dose 32.0 µg/ml.
For assay [23] the target is unchanged. The note with it: Escherichia coli BW25113; dose 64.0 µg/ml.
Assay [24] shares this target. As to conditions: Escherichia coli BW25113; dose 128.0 µg/ml.
Assay [25] shares this target. The note with it: Escherichia coli BW25113; dose 256.0 µg/ml.
Assay [26] shares this target. Put plainly: Inhibition of AcrB in multidrug-resistant Escherichia coli BW25113 assessed as potentiation of chloramphenicol-induced antibacterial activity by measuring chloramphenicol MIC at 512 ug/ml by checkerboard titration method (reference value: 8 ug/ml). As to conditions: dose 512.0 µg/ml.
The target is the same in assay [27]. Put plainly: Inhibition of AcrB in multidrug-resistant Escherichia coli BW25113 assessed as potentiation of erythromycin-induced antibacterial activity by measuring erythromycin MIC at 512 ug/ml by checkerboard titration method (reference value: 64 ug/ml). The note with it: dose 512.0 µg/ml.
For assay [28] the target is unchanged. In words: Inhibition of AcrB in multidrug-resistant Escherichia coli BW25113 assessed as potentiation of tetraphenylphosphonium-induced antibacterial activity by measuring tetraphenylphosphonium MIC at 512 ug/ml by checkerboard titration method (reference value: 1024 ug/ml). As to conditions: dose 512.0 µg/ml.
The target is the same in assay [29]. In words: Inhibition of AcrB in multidrug-resistant Escherichia coli BW25113 assessed as potentiation of levofloxacin-induced antibacterial activity by measuring levofloxacin MIC at 512 ug/ml by checkerboard titration method (reference value: 0.06 ug/ml). As to conditions: dose 512.0 µg/ml.
Assay [30] has the same target. The note with it: Escherichia coli BW25113; dose 512.0 µg/ml.

For the compound `C[C@@H](Cc1ccc(O)c(O)c1)[C@@H](C)Cc1ccc(O)c(O)c1`, the MIC was 8 µg/mL in assay [1]; 8 µg/mL in [2]; 8 µg/mL in assay [3]; 4 µg/mL in [4]; 2 µg/mL in assay [5]; 64 µg/mL in [6]. Besides, the MIC in assay [7] was found to be 64 µg/mL; in [8], 64 µg/mL; in assay [9] it was 64 µg/mL; in [10], 32 µg/mL; in [11], 1020 µg/mL; in assay [12], 1020 µg/mL. Moreover, the MIC came to 1020 µg/mL in [13]; 128 µg/mL in [14]; 64 µg/mL in [15]; 0.06 µg/mL in [16]; 0.06 µg/mL in assay [17]; 0.03 µg/mL in assay [18]. The MIC amounted to 0.03 µg/mL in assay [19]; 0.03 µg/mL in assay [20]; 16 µg/mL (≈ 52.9 µM) in [21]; 16 µg/mL (≈ 52.9 µM) in assay [22]; 16 µg/mL (≈ 52.9 µM) in assay [23]; 16 µg/mL (≈ 52.9 µM) in assay [24]. In assay [25], the MIC amounted to 16 µg/mL (≈ 52.9 µM).
In the case of `CC(C)CCOc1cc(C(N)=O)cc2ccccc12`, the MIC worked out at 8 µg/mL in assay [5]; 4 µg/mL in [26]; 64 µg/mL in assay [10]; 32 µg/mL in assay [27]; 512 µg/mL in assay [15]; 256 µg/mL in assay [28]. The MIC was found to be 0.06 µg/mL in assay [20], 0.06 µg/mL in assay [29], 16 µg/mL (≈ 62.2 µM) in assay [25] and 16 µg/mL (≈ 62.2 µM) in [30].
